Data on eleven compounds can be found in patent EP4711369A1, “1H-[1,2,3]TRIAZOLO[4,5-H]QUINAZOLINE COMPOUNDS AS PROTEIN KINASE INHIBITORS” (Chengdu Cynogen Bio-Pharmaceutical Technology Co., Ltd., priority 2023, dated 2024).

The test system of assay [1] is human gastric cancer MKN1 cells. Kind of assay: Assay of cell proliferation (CellTiter-Glo). As to conditions: Homo sapiens, MKN-1, 144 h; MNK1, 6 days; read-out: MKN1 IC50 of cell proliferation inhibitory activity. Format: cell-based. The method, then:
(§1) Human ovarian cancer OVCAR3 cells were inoculated at 2000 cells/well in a 96-well plate and cultured in RPMI 1640 medium containing 20% FBS at 37 °C and 5% CO2 overnight in an incubator. The next day, the compounds were subjected to a three-fold gradient dilution in DMSO from a peak concentration of 2 mM to give nine concentrations. Then, the compounds were diluted 3:200 in growth medium, and finally diluted 1:3 in the cell culture supernatant to give a culture supernatant containing 0.5% DMSO, with the compounds treatment concentrations ranging from 10 µM to 0.1 nM. The cells and the compounds were incubated at 37 °C and 5% CO2 for 6 days. Then, cell proliferation assay was performed using the CellTiter-Glo (manufacturer: Promega, Cat. No. G9242), and luminescence signals were read using a multifunctional microplate reader (model: Synergy H1, manufacturer: BiotTek). IC50 values were calculated by fitting of the concentration-response curves with a four-parameter analysis method using GraphPad Prism software.
(§2) The cell proliferation assays of human colon cancer HCT-116 cells, human breast cancer MCF-7 cells, human breast cancer HCC1806 cells, human acute myeloid leukemia MV-4-11 cells, and human gastric cancer MKN1 cells were performed according to the same method, with different inoculation densities set according to different cell growth characteristics.

The test system of assay [2] is human acute myeloid leukemia MV-4-11 cells. Briefly: Assay of cell proliferation (CellTiter-Glo). Particulars: MV4-11, 144 h, 6 days, read-out: MV-4-11 IC50 of cell proliferation inhibitory activity. The format is cell-based. The method, then: as §1, §2
A general note: Cellular ATP, detected with luciferase, serves as a proxy for viable cell number.

Assay [3] concerns human breast cancer HCC1806 cells. Kind of assay: Assay of cell proliferation (CellTiter-Glo). The format is cell-based. Particulars: Homo sapiens, 144 h, 6 days, read-out: HCC1806 IC50 of cell proliferation inhibitory activity. The method, then: as §1, §2
Assay [4] relates to Human ovarian cancer OVCAR3 cells. Kind of assay: Assay of cell proliferation (CellTiter-Glo). The format is cell-based. Particulars: Homo sapiens, OVCAR-3, 144 h, 6 days, read-out: OVCAR3 IC50 of cell proliferation inhibitory activity. The method, then:
as §1

The next assay has as its target CDK2/cyclin E (Homo sapiens, UniProt P24941). Briefly: Assay of kinase activity (ADP-Glo). As to conditions: kinase inhibitory activity, read-out: CDK2/E1 IC50. The format is biochemical. The method, then:
(§3) CDK/cyclin catalyzes the phosphorylation of a substrate, which concomitantly consumes ATP and produces ADP. The inhibition rate (%) in the presence of a small molecule inhibitor was assessed by measuring the amount of ADP generated in the reaction. The assay compounds were thoroughly mixed by vortexing and then diluted in DMSO to 100× the assay concentration. […] A 2× kinase solution was prepared using a 1× kinase reaction buffer (50 mM Hepes, 10 mM MgCl2, 0.01% Brij35, 2 mM DTT). 2 µL of the kinase solution was transferred to the 384-well assay plate, and the plate was centrifuged at 1000 rpm for 60 seconds in a microplate centrifuge. The plate was incubated at 25 °C in a biochemical incubator for 10 minutes. A 2x mixture of substrate and ATP was prepared in the kinase reaction buffer. Then, 2 µL of the mixture of substrate and ATP was added to the 384-well assay plate. The plate was centrifuged at 1000 rpm for 60 seconds in a microplate centrifuge, and incubated at 25 °C in a biochemical incubator for 60 minutes. 4 µL of ADP-Glo Reagent (Cat. No. V9103, manufacturer: Promega) incubated at 25 °C in a biochemical incubator was added to each well of the 384-well assay plate. The plate was centrifuged at 1000 rpm for 60 seconds in a microplate centrifuge, and incubated at 25 °C in a biochemical incubator for 40 minutes. 8 µL of Detection Reagent incubated at 25 °C in a biochemical incubator was added to each well of the 384-well assay plate. The plate was centrifuged at 1000 rpm for 60 seconds in a microplate centrifuge, and incubated at 25 °C in a biochemical incubator for 40 minutes. Finally, luminescence signals were read using a multifunctional microplate reader (model: PHERAstar FSX, manufacturer: BMG). IC50 values were calculated by nonlinear fitting of the concentration-response curves using GraphPad Prism software.

The next assay concerns the target CDK4/cyclin D1 (Homo sapiens, UniProt P11802). Kind of assay: Assay of kinase activity (ADP-Glo). The format is biochemical. As to conditions: kinase inhibitory activity. The method, then:
as §3
For orientation: ADP-Glo turns the ADP formed in a reaction into a luminescent signal.

A further assay has as its target CDK6/cyclin D3 (Homo sapiens, UniProt Q00534). Kind of assay: Assay of kinase activity (ADP-Glo). The format is biochemical. Particulars: kinase inhibitory activity. The method, then: (§4) CDK/cyclin catalyzes the phosphorylation of a substrate, which concomitantly consumes ATP and produces ADP. The inhibition rate (%) in the presence of a small molecule inhibitor was assessed by measuring the amount of ADP generated in the reaction. The assay compounds were thoroughly mixed by vortexing and then diluted in DMSO to 100× the assay concentration. 40 nL of a compound was transferred to a 384-well assay plate using a nanoliter pipetting system (ECHO® 655 SYSTEM). A 2× kinase solution was prepared using a 1× kinase reaction buffer (50 mM Hepes, 10 mM MgCl2, 0.01% Brij35, 2 mM DTT). 2 µL of the kinase solution was transferred to the 384-well assay plate, and the plate was centrifuged at 1000 rpm for 60 seconds in a microplate centrifuge. The plate was incubated at 25 °C in a biochemical incubator for 10 minutes. A 2x mixture of substrate and ATP was prepared in the kinase reaction buffer. Then, 2 µL of the mixture of substrate and ATP was added to the 384-well assay plate. The plate was centrifuged at 1000 rpm for 60 seconds in a microplate centrifuge, and incubated at 25 °C in a biochemical incubator for 60 minutes. 4 µL of ADP-Glo Reagent (Cat. No. V9103, manufacturer: Promega) incubated at 25 °C in a biochemical incubator was added to each well of the 384-well assay plate. The plate was centrifuged at 1000 rpm for 60 seconds in a microplate centrifuge, and incubated at 25 °C in a biochemical incubator for 40 minutes. 8 µL of Detection Reagent incubated at 25 °C in a biochemical incubator was added to each well of the 384-well assay plate. The plate was centrifuged at 1000 rpm for 60 seconds in a microplate centrifuge, and incubated at 25 °C in a biochemical incubator for 40 minutes. Finally, luminescence signals were read using a multifunctional microplate reader (model: PHERAstar FSX, manufacturer: BMG). IC50 values were calculated by nonlinear fitting of the concentration-response curves using GraphPad Prism software.

The next assay has as its target CDK9/cyclin T1 (Homo sapiens, UniProt P50750). Briefly: Assay of kinase activity (ADP-Glo). The format is biochemical. Particulars: kinase inhibitory activity. How it is done:
as §4

CDK9/cyclin T1, sequence (P50750 whole entry, species assumed): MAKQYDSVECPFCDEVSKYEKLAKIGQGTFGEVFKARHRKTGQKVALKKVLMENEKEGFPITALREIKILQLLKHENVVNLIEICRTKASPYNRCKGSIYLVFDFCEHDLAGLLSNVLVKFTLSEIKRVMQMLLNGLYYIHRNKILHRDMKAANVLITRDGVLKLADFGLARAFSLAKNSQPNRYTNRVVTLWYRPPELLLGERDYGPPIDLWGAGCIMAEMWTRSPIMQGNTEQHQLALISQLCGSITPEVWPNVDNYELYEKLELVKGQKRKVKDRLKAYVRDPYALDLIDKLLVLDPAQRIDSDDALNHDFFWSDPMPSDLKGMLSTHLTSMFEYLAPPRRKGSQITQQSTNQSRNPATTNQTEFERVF
CDK9/cyclin T1, sequence (O60563 whole entry partner, species assumed): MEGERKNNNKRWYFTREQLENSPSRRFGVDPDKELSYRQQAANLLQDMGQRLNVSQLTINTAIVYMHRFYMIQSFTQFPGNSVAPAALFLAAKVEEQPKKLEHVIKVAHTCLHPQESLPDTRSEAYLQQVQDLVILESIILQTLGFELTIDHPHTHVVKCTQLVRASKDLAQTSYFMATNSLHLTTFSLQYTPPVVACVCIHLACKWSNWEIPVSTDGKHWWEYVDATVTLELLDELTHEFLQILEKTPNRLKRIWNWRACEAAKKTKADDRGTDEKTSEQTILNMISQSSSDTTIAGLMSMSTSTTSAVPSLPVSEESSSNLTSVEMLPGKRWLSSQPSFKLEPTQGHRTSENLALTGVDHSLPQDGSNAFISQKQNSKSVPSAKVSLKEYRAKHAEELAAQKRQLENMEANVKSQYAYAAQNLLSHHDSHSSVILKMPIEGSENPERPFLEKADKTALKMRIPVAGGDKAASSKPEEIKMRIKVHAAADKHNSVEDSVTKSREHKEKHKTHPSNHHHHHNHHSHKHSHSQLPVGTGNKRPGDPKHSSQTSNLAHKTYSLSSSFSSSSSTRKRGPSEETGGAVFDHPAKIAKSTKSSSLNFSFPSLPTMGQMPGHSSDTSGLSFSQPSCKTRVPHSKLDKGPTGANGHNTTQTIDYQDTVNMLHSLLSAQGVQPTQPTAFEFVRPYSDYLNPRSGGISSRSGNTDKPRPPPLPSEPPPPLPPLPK
CDK6/cyclin D3, sequence (Q00534 whole entry, species assumed): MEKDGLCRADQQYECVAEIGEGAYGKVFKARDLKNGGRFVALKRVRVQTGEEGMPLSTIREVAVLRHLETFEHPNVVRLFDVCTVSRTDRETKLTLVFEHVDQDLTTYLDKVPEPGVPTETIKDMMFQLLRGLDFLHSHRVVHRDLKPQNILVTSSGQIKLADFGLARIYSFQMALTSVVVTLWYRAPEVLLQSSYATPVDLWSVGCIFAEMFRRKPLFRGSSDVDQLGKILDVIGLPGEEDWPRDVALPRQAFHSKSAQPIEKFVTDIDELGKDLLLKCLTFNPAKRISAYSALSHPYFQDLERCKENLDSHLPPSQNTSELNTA
CDK6/cyclin D3, sequence (P30281 whole entry partner, species assumed): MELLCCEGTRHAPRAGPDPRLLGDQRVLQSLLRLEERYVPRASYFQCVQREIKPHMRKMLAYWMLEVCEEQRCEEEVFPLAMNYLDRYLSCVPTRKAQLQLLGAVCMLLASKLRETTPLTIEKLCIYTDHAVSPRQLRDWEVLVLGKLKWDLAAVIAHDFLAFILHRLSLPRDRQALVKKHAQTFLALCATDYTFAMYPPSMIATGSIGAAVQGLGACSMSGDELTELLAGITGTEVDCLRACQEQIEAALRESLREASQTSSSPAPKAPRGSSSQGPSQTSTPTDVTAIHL
CDK4/cyclin D1, sequence (P11802 whole entry, species assumed): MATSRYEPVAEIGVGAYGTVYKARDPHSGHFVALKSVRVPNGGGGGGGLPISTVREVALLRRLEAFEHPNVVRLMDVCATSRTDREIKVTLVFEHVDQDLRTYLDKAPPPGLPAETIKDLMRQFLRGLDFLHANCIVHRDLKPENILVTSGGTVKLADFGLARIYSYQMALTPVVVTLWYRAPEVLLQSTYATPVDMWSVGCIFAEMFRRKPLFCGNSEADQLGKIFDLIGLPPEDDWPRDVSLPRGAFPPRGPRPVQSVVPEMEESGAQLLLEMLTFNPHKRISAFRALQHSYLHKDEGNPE
CDK4/cyclin D1, sequence (P24385 whole entry partner, species assumed): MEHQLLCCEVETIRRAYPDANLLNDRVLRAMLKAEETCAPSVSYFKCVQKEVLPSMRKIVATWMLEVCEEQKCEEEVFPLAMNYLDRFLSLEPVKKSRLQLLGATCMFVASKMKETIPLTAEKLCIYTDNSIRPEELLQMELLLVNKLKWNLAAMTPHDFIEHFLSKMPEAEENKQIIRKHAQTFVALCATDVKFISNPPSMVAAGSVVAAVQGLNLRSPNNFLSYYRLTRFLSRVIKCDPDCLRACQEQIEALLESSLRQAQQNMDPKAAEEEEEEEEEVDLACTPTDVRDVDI

With `CC(C)n1nnc2ccc3cnc(Nc4ccc(C(=O)N5CC[C@@H](O)[C@H](N)C5)cc4)nc3c21` [Example I-13, ((3R,4R)-3-Amino-4-hydroxypiperidin-1-yl)(4-((1-isopropyl-1H-[1,2,3]triazolo[4,5-H]quinazolin-8-yl)amino)phenyl)metha none], the IC50 in assay [1] amounted to 252 nM; in assay [2], 4 nM; in assay [3], 330 nM; in assay [4] it was 156 nM; on CDK2/cyclin E, 0.8 nM; at CDK4/cyclin D1, 4 nM. On CDK6/cyclin D3, the IC50 is 29 nM.
Take `CN(C)[C@H]1CCN(C(=O)c2ccc(Nc3ncc4ccc5nnn(C6CCCC6)c5c4n3)cc2)C1` [Example I-40, (S)-(4-((1-cyclopentyl-1H-[1,2,3]triazolo[4,5-H]quinazolin-8-yl)amino)phenyl)(3-(dimethylamino)pyrrolidin-1-yl)methanone]: the IC50 in assay [1] stood at 5 nM; in assay [3], 16 nM; in assay [4] it was 10 nM; at CDK2/cyclin E, 0.06 nM; at CDK4/cyclin D1, 0.7 nM; against CDK9/cyclin T1 it was 2 nM. In addition, at CDK6/cyclin D3, the IC50 was found to be 3 nM.
Turning to `CC(C)n1nnc2ccc3cnc(Nc4ccc(C(=O)N5CC[C@H](N)[C@H](O)C5)cc4)nc3c21` [Example I-14, ((3R,4S)-4-Amino-3-hydroxypiperidin-1-yl)(4-((1-isopropyl-1H-[1,2,3]triazolo[4,5-H]quinazolin-8-yl)amino)phenyl)metha none], the IC50 in assay [1] was determined as 66 nM; in assay [2], 11 nM; in assay [3], 424 nM; in assay [4], 102 nM; on CDK2/cyclin E it was 2 nM; against CDK4/cyclin D1, 2 nM. At CDK6/cyclin D3, this compound yielded an IC50 of 39 nM.
As to `O=C(c1ccc(Nc2ncc3ccc4nnn(C5CCCC5)c4c3n2)cc1)N1CCCNCC1` [Example I-41, (4-((1-Cyclopentyl-1H-[1,2,3]triazolo[4,5-H]quinazolin-8-yl)amino)phenyl)(1,4-diazepan-1-yl)methanone], the IC50 in assay [1] amounted to 4 nM; in assay [3], 15 nM; in assay [4], 11 nM; on CDK2/cyclin E, 0.08 nM; on CDK4/cyclin D1, 1 nM; against CDK9/cyclin T1, 2 nM. For the same compound, the IC50 at CDK6/cyclin D3 worked out at 5 nM.
With `CC(C)n1nnc2ccc3cnc(Nc4ccc(C(=O)N5CCN(CCCO)CC5)cc4)nc3c21` [Example I-31, (4-(3-Hydroxypropyl)piperazin-1-yl)(4-((1-isopropyl-1H-[1,2,3]triazolo[4,5-H]quinazolin-8-yl)amino)phenyl)metha none], the IC50 in assay [1] came to 67 nM; in assay [3], 273 nM; in assay [4], 193 nM; on CDK2/cyclin E, 7 nM; at CDK4/cyclin D1, 8 nM; against CDK9/cyclin T1 it was 380 nM. In addition, the IC50 at CDK6/cyclin D3 was found to be 89 nM.
Regarding `CN[C@H]1CCN(C(=O)c2ccc(Nc3ncc4cc(C(F)F)c5nnn(C(C)C)c5c4n3)cc2)C1` [Example I-44, (S)-(4-((4-(difluoromethyl)-1-isopropyl-1H-[1,2,3]triazolo[4,5-H]quinazolin-8-yl)amino)phenyl)(3-(methylamino)pyrrolidin-1-yl)methanone], the IC50 was 127 nM in assay [1]; 404 nM in assay [3]; 321 nM in assay [4]; 0.7 nM at CDK2/cyclin E; 2 nM against CDK4/cyclin D1; 140 nM at CDK9/cyclin T1. Moreover, at CDK6/cyclin D3, the IC50 was found to be 16 nM.
In the case of `CC(C)n1nnc2ccc3cnc(Nc4ccc(C(=O)N5CCN(C)CC5)c(F)c4)nc3c21` [Example I-26, (2-Fluoro-4-((1-isopropyl-1H-[1,2,3]triazolo[4,5-H]quinazolin-8-yl)amino)phenyl)(4-methylpiperazin-1-yl)methanone], the IC50 in assay [1] worked out at 41 nM; in assay [3] it was 436 nM; in assay [4], 45 nM; on CDK2/cyclin E, 1 nM; against CDK4/cyclin D1, 4 nM; against CDK9/cyclin T1 it was 16 nM. This compound displayed an IC50 against CDK6/cyclin D3 of 19 nM.
Turning to `CN1CCCN(C(=O)c2ccc(Nc3ncc4ccc5nnn(C6CCCC6)c5c4n3)cc2)CC1` [Example I-42, (4-((1-Cyclopentyl-1H-[1,2,3]triazolo[4,5-H]quinazolin-8-yl)amino)phenyl)(4-methyl-1,4-diazepan-1-yl)methanone], the IC50 in assay [1] was found to be 3 nM; in assay [3], 7 nM; in assay [4], 6 nM; at CDK2/cyclin E, 0.06 nM; against CDK4/cyclin D1 it was 1 nM; at CDK9/cyclin T1, 2 nM. This compound also showed an IC50 against CDK6/cyclin D3 of 4 nM.
Regarding `CC(C)n1nnc2c(C(F)F)cc3cnc(Nc4ccc(C(=O)N5CCCNCC5)cc4)nc3c21` [Example I-46], the IC50 in assay [1] came to 170 nM; in assay [3], 317 nM; in assay [4], 275 nM; on CDK2/cyclin E it was 0.7 nM; against CDK4/cyclin D1, 3 nM; on CDK9/cyclin T1 it was 134 nM. The same compound registered an IC50 against CDK6/cyclin D3 of 24 nM.
With `CC(C)n1nnc2c(C(F)F)cc3cnc(Nc4ccc(C(=O)N5CCCN(C)CC5)cc4)nc3c21` [Example I-47, (4-((4-(Difluoromethyl)-1-isopropyl-1H-[1,2,3]triazolo[4,5-H]quinazolin-8-yl)amino)phenyl)(4-methyl-1,4-diazepan-1-yl)methanone], the IC50 amounted to 111 nM in assay [1]; 169 nM in assay [3]; 146 nM in assay [4]; 0.7 nM at CDK2/cyclin E; 2 nM on CDK4/cyclin D1; 148 nM against CDK9/cyclin T1. Besides, the IC50 against CDK6/cyclin D3 worked out at 20 nM.
`CCN1CCN(C(=O)c2ccc(Nc3ncc4ccc5nnn(C(C)C)c5c4n3)cc2)CC1` [Example I-29, (4-Ethylpiperazin-1-yl)(4-((1-isopropyl-1H-[1,2,3]triazolo[4,5-H]quinazolin-8-yl)amino)phenyl)metha none]: the IC50 came out at 15 nM in assay [1]; 207 nM in assay [3]; 40 nM in assay [4]; 1 nM at CDK2/cyclin E; 2 nM on CDK4/cyclin D1; 6 nM against CDK9/cyclin T1. Further, the IC50 against CDK6/cyclin D3 was determined as 12 nM.
